Experimental data: ChEMBL document CHEMBL1128617, “4-Deoxy-4-aminoavermectins with potent broad spectrum antiparasitic activities” (1995)

What was measured:
Format in all cases: functional
[1] = system: Oesophagostomum columbianum; test: Antiparasitic activity against Oesophagostomum columbianum at dose of 0.05 mg/kg in sheep anthelmintic test
[2] = system: Teladorsagia circumcincta; test: Antiparasitic activity against Ostertagia circumcincta at dose of 0.05 mg/kg in sheep anthelmintic test
[3] = system: Trichostrongylus axei; test: Antiparasitic activity against Trichostrongylus axei at dose of 0.05 mg/kg in sheep anthelmintic test
[4] = system: Cooperia oncophora; test: Antiparasitic activity against Cooperia oncophora at dose of 0.05 mg/kg in sheep anthelmintic test
[5] = system: Haemonchus contortus; test: Antiparasitic activity against Haemonchus contortus at dose of 0.05 mg/kg in sheep anthelmintic test
[6] = system: Trichostrongylus colubriformis; test: Antiparasitic activity against Trichostrongylus colubriformis at dose of 0.05 mg/kg in sheep anthelmintic test
[7] = system: Artemia; test: In vitro antiparasitic activity in brine shrimp assay
[8] = system: Cooperia; test: Antiparasitic activity against Cooperia […] at dose of 0.05 mg/kg in sheep anthelmintic test
[9] = system: Oesophagostomum columbianum; test: Antiparasitic activity against Oesophagostomum columbianum at dose of 0.10 mg/kg in sheep anthelmintic test; conditions: dose 0.1 mg/kg
[10] = system: Teladorsagia circumcincta; test: Antiparasitic activity against Ostertagia circumcincta at dose of 0.10 mg/kg in sheep anthelmintic test; conditions: dose 0.1 mg/kg
[11] = system: Haemonchus contortus; test: Antiparasitic activity against Haemonchus contortus at dose of 0.10 mg/kg in sheep anthelmintic test; conditions: dose 0.1 mg/kg
[12] = system: Cooperia; test: Antiparasitic activity against Cooperia […] at dose of 0.10 mg/kg in sheep anthelmintic test; conditions: dose 0.1 mg/kg
[13] = system: Trichostrongylus axei; test: Antiparasitic activity against Trichostrongylus axei at dose of 0.10 mg/kg in sheep anthelmintic test; conditions: dose 0.1 mg/kg
[14] = system: Trichostrongylus colubriformis; test: Antiparasitic activity against Trichostrongylus colubriformis at dose of 0.10 mg/kg in sheep anthelmintic test; conditions: dose 0.1 mg/kg

Row | Compound | Reduction [1] [%] | Reduction [2] [%] | Reduction [3] [%] | Reduction [4] [%] | Reduction [5] [%] | Reduction [6] [%] | IC100 [7] [ng/mL] | Reduction [8] [%] | Reduction [9] [%] | Reduction [10] [%] | Reduction [11] [%] | Reduction [12] [%] | Reduction [13] [%] | Reduction [14] [%]
1 | CCC(C)[C@H]1O[C@]2(C=C[C@@H]1C)C[C@@H]1C[C@@H](C/C=C(\C)[C@@H](O[C@H]3C[C@H](OC)[C@@H](O[C@H]4C[C@H](OC)[C@H](NS(C)(=O)=O)[C@H](C)O4)[C@H](C)O3)[C@@H](C)/C=C/C=C3\CO[C@@H]4[C@H](O)C(C)=C[C@@H](C(=O)O1)[C@]34O)O2 (stereo not given in full) | >95 | >95 | >95 | >95 | >95 | >95 | 430 | >95 |  |  |  |  |  | 
2 | CCC(C)[C@H]1O[C@]2(C=C[C@@H]1C)C[C@@H]1C[C@@H](C/C=C(\C)[C@@H](O[C@H]3C[C@H](OC)[C@@H](O[C@H]4C[C@H](OC)[C@H](NC(=O)NC)[C@H](C)O4)[C@H](C)O3)[C@@H](C)/C=C/C=C3\CO[C@@H]4[C@H](O)C(C)=C[C@@H](C(=O)O1)[C@]34O)O2 (stereo not given in full) |  |  |  |  |  |  | 430 |  | >95 | 51 | >95 | >95 | >95 | 76
3 | CCC(C)[C@H]1O[C@]2(C=C[C@@H]1C)C[C@@H]1C[C@@H](C/C=C(\C)[C@@H](O[C@H]3C[C@H](OC)[C@@H](O[C@H]4C[C@H](OC)[C@@H](O)[C@H](C)O4)[C@H](C)O3)[C@@H](C)/C=C/C=C3\CO[C@@H]4[C@H](O)C(C)=C[C@@H](C(=O)O1)[C@]34O)O2 (stereo not given in full) [AVERMECTIN] |  |  |  |  |  |  | 296 |  | >95 | >95 | >95 | >95 | >95 | >95
4 | CCC(C)[C@H]1O[C@]2(C=C[C@@H]1C)C[C@@H]1C[C@@H](C/C=C(\C)[C@@H](O[C@H]3C[C@H](OC)[C@@H](O[C@H]4C[C@H](OC)[C@H](NC)[C@H](C)O4)[C@H](C)O3)[C@@H](C)/C=C/C=C3\CO[C@@H]4[C@H](O)C(C)=C[C@@H](C(=O)O1)[C@]34O)O2 (stereo not given in full) |  |  |  |  |  |  | 1730 |  | >95 | >95 | >95 | >95 | >95 | 76
5 | CCC(=O)N[C@@H]1[C@H](C)O[C@@H](O[C@H]2[C@H](C)O[C@@H](O[C@@H]3/C(C)=C/C[C@@H]4C[C@@H](C[C@]5(C=C[C@H](C)[C@@H](C(C)CC)O5)O4)OC(=O)[C@@H]4C=C(C)[C@@H](O)[C@H]5OC/C(=C\C=C\[C@@H]3C)[C@]54O)C[C@@H]2OC)C[C@@H]1OC (stereo not given in full) | >95 | >95 | >95 | >95 | >95 | >95 | 430 | >95 |  |  |  |  |  | 
6 | CCC(C)[C@H]1O[C@]2(C=C[C@@H]1C)C[C@@H]1C[C@@H](C/C=C(\C)[C@@H](O[C@H]3C[C@H](OC)[C@@H](O[C@H]4C[C@H](OC)[C@@H](N)[C@H](C)O4)[C@H](C)O3)[C@@H](C)/C=C/C=C3\CO[C@@H]4[C@H](O)C(C)=C[C@@H](C(=O)O1)[C@]34O)O2 (stereo not given in full) |  |  |  |  |  |  | 2600 |  | >95 | >95 | >95 | >95 | <50 | <50
7 | CCC(C)[C@H]1O[C@]2(C=C[C@@H]1C)C[C@@H]1C[C@@H](C/C=C(\C)[C@@H](O[C@H]3C[C@H](OC)[C@@H](O[C@H]4C[C@H](OC)[C@H](NC(=O)c5ccccc5)[C@H](C)O4)[C@H](C)O3)[C@@H](C)/C=C/C=C3\CO[C@@H]4[C@H](O)C(C)=C[C@@H](C(=O)O1)[C@]34O)O2 (stereo not given in full) | >95 | 76 | <50 | >95 | 76 | <50 | 28000 | >95 |  |  |  |  |  | 
8 | CCC(C)[C@H]1O[C@]2(C=C[C@@H]1C)C[C@@H]1C[C@@H](C/C=C(\C)[C@@H](O[C@H]3C[C@H](OC)[C@@H](O[C@H]4C[C@H](OC)[C@H](NC(=O)C(F)(F)F)[C@H](C)O4)[C@H](C)O3)[C@@H](C)/C=C/C=C3\CO[C@@H]4[C@H](O)C(C)=C[C@@H](C(=O)O1)[C@]34O)O2 (stereo not given in full) |  |  |  |  |  |  | 27800 |  | >95 | <50 | >95 | >95 | >95 | >95
9 | CCC(C)[C@H]1O[C@]2(C=C[C@@H]1C)C[C@@H]1C[C@@H](C/C=C(\C)[C@@H](O[C@H]3C[C@H](OC)[C@@H](O[C@H]4C[C@H](OC)[C@H](NCCO)[C@H](C)O4)[C@H](C)O3)[C@@H](C)/C=C/C=C3\CO[C@@H]4[C@H](O)C(C)=C[C@@H](C(=O)O1)[C@]34O)O2 (stereo not given in full) |  |  |  |  |  |  | 3470 |  | >95 | >95 | >95 | >95 | <50 | 76
10 | CCC(C)[C@H]1O[C@]2(C=C[C@@H]1C)C[C@@H]1C[C@@H](C/C=C(\C)[C@@H](O[C@H]3C[C@H](OC)[C@@H](O[C@H]4C[C@H](OC)[C@H](N)[C@H](C)O4)[C@H](C)O3)[C@@H](C)/C=C/C=C3\CO[C@@H]4[C@H](O)C(C)=C[C@@H](C(=O)O1)[C@]34O)O2 (stereo not given in full) |  |  |  |  |  |  | 1730 |  | >95 | >95 | >95 | >95 | <50 | 51
11 | CCC(C)[C@H]1O[C@]2(C=C[C@@H]1C)C[C@@H]1C[C@@H](C/C=C(\C)[C@@H](O[C@H]3C[C@H](OC)[C@@H](O[C@H]4C[C@H](OC)[C@H](NC(=O)C(C)(C)C)[C@H](C)O4)[C@H](C)O3)[C@@H](C)/C=C/C=C3\CO[C@@H]4[C@H](O)C(C)=C[C@@H](C(=O)O1)[C@]34O)O2 (stereo not given in full) |  |  |  |  |  |  | 1730 |  | >95 | 76 | >95 | >95 | 76 | 76
12 | CCC(C)[C@H]1O[C@]2(C=C[C@@H]1C)C[C@@H]1C[C@@H](C/C=C(\C)[C@@H](O[C@H]3C[C@H](OC)[C@H](NC(C)=O)[C@H](C)O3)[C@@H](C)/C=C/C=C3\CO[C@@H]4[C@H](O)C(C)=C[C@@H](C(=O)O1)[C@]34O)O2 (stereo not given in full) |  |  |  |  |  |  | 1300 |  | 76 | >95 | <50 | <50 | >95 | >95
13 | CCC(C)[C@H]1O[C@]2(CC[C@@H]1C)C[C@@H]1C[C@@H](C/C=C(\C)[C@@H](O[C@H]3C[C@H](OC)[C@@H](O[C@H]4C[C@H](OC)[C@H](NC(=O)COC)[C@H](C)O4)[C@H](C)O3)[C@@H](C)/C=C/C=C3\CO[C@@H]4[C@H](O)C(C)=C[C@@H](C(=O)O1)[C@]34O)O2 (stereo not given in full) |  |  |  |  |  |  | 870 |  | >95 | >95 | >95 | >95 | >95 | 76
14 | CCC(C)[C@H]1O[C@]2(C=C[C@@H]1C)C[C@@H]1C[C@@H](C/C=C(\C)[C@@H](O[C@H]3C[C@H](OC)[C@@H](O[C@H]4C[C@H](OC)[C@H](NC(C)=O)[C@H](C)O4)[C@H](C)O3)[C@@H](C)/C=C/C=C3\CO[C@@H]4[C@H](O)C(C)=C[C@@H](C(=O)O1)[C@]34O)O2 (stereo not given in full) | >95 | >95 | >95 |  | >95 | >95 | 540 | >95 |  |  |  |  |  | 
15 | CCC(C)[C@H]1O[C@]2(CC[C@@H]1C)C[C@@H]1C[C@@H](C/C=C(\C)[C@@H](O[C@H]3C[C@H](OC)[C@@H](O[C@H]4C[C@H](OC)[C@H](N)[C@H](C)O4)[C@H](C)O3)[C@@H](C)/C=C/C=C3\CO[C@@H]4[C@H](O)C(C)=C[C@@H](C(=O)O1)[C@]34O)O2 (stereo not given in full) |  |  |  |  |  |  | 1730 |  | >95 | >95 | >95 | >95 | <50 | <50
16 | CCCCCCCCN[C@@H]1[C@H](C)O[C@@H](O[C@H]2[C@H](C)O[C@@H](O[C@@H]3/C(C)=C/C[C@@H]4C[C@@H](C[C@]5(C=C[C@H](C)[C@@H](C(C)CC)O5)O4)OC(=O)[C@@H]4C=C(C)[C@@H](O)[C@H]5OC/C(=C\C=C\[C@@H]3C)[C@]54O)C[C@@H]2OC)C[C@@H]1OC (stereo not given in full) |  |  |  |  |  |  | >55500 |  | <50 | <50 | <50 | <50 | <50 | <50
